Laboratory results as given in article PMC10004634 (PLOS ONE, 2023).
Where two headings read alike, the source gives them in different places.

How the values were obtained:
Test in all cases: biochemical
Design in all cases: KINOMEscan scanMAX competition binding, DNA-tagged kinases, qPCR read-out, percent control at 300 nM
CDKL2 = target: T1, CDKL2 (Homo sapiens, UniProt Q92772)
T1 sequence (Q92772 1-493): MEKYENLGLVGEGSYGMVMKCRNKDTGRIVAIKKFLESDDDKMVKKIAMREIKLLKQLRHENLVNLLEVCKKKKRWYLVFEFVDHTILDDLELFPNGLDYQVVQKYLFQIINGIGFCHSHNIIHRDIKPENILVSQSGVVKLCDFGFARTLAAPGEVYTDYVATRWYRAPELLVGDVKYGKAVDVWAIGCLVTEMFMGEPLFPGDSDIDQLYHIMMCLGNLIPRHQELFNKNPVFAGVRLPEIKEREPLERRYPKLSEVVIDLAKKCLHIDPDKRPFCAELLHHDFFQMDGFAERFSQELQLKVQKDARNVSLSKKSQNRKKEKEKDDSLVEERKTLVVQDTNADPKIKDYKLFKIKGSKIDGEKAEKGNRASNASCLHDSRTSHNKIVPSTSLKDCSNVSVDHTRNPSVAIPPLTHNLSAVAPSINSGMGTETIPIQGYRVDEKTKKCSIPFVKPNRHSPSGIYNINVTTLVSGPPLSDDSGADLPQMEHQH

EGFR = EGFR (Homo sapiens, UniProt P00533)
PHKG2 = target: T2, PHKG2 (Homo sapiens, UniProt P15735)
T2 sequence (P15735 1-406): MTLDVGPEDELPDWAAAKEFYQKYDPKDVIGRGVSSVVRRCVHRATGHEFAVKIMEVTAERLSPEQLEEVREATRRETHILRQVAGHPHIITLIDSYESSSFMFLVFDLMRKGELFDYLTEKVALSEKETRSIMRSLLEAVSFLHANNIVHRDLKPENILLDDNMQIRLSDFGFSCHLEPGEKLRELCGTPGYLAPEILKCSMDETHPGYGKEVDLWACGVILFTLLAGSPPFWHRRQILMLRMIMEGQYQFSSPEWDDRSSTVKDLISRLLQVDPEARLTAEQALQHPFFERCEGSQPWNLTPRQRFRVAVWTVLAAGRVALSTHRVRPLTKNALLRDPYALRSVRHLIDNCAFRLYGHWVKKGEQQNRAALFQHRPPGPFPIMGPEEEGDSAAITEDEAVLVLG

PIK3CA(E545K) = PIK3CA(E545K) (Homo sapiens, UniProt P42336, E545K)
WEE1 = WEE1 (Homo sapiens, UniProt P30291)
AXL = target: T3, AXL (Homo sapiens, UniProt P30530)
T3 sequence (P30530 1-894): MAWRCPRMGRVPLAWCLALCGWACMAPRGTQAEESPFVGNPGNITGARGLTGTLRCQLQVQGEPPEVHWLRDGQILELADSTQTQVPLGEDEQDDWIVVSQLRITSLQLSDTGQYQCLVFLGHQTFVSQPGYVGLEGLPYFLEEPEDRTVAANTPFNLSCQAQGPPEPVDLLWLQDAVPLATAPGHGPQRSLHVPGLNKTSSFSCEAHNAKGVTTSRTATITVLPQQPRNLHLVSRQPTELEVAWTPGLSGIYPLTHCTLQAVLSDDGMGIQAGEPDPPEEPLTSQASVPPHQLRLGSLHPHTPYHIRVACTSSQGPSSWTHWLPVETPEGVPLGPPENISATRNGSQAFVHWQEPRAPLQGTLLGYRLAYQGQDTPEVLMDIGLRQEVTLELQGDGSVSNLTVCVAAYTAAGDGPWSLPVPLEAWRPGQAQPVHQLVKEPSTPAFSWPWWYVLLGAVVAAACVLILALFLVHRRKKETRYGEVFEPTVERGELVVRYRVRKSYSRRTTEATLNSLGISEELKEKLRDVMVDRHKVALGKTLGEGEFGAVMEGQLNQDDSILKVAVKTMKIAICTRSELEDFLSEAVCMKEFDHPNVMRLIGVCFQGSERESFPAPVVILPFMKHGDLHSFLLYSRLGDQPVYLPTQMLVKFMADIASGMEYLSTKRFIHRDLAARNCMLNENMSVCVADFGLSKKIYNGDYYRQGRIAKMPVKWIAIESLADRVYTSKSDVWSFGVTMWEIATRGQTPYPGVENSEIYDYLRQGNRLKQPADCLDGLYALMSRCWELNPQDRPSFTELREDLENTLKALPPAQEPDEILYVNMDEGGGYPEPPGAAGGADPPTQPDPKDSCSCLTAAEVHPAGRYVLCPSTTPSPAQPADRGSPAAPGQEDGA

CSF1R = CSF1R (Homo sapiens, UniProt P07333)
SRPK3 = SRPK3 (Homo sapiens, UniProt Q9UPE1)
[1] = read-out: Percent control / Tirabrutinib
[2] = read-out: Percent control / Ibrutinib
[3] = read-out: Percent control / Zanubrutinib
[4] = read-out: Percent control / Acalabrutinib

Chain of CSF1R (P07333 whole entry): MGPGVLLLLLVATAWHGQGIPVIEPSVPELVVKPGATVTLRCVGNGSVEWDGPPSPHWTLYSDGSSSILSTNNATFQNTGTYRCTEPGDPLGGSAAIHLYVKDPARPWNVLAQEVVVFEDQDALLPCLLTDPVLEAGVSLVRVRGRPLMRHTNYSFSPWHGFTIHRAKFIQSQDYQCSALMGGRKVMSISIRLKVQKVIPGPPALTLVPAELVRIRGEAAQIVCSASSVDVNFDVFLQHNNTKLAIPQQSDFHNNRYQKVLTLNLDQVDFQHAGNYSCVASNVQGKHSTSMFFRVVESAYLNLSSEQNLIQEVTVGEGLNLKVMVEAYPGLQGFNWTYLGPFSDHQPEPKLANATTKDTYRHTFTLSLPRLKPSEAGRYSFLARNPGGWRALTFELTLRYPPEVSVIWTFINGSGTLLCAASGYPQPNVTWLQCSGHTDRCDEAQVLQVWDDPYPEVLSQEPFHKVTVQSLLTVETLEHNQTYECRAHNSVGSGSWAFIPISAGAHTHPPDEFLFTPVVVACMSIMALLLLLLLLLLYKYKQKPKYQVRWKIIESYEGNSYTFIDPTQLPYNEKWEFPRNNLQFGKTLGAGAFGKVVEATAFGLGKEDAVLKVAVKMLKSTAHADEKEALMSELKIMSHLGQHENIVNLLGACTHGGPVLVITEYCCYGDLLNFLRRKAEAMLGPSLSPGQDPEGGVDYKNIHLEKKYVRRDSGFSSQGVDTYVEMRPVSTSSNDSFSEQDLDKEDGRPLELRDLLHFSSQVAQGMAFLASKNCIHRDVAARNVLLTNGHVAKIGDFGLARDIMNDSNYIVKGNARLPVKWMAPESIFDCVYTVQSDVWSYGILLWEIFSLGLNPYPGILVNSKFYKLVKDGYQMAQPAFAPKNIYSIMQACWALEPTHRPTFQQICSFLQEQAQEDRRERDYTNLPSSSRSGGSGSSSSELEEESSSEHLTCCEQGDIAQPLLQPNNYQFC
Chain of WEE1 (P30291 whole entry): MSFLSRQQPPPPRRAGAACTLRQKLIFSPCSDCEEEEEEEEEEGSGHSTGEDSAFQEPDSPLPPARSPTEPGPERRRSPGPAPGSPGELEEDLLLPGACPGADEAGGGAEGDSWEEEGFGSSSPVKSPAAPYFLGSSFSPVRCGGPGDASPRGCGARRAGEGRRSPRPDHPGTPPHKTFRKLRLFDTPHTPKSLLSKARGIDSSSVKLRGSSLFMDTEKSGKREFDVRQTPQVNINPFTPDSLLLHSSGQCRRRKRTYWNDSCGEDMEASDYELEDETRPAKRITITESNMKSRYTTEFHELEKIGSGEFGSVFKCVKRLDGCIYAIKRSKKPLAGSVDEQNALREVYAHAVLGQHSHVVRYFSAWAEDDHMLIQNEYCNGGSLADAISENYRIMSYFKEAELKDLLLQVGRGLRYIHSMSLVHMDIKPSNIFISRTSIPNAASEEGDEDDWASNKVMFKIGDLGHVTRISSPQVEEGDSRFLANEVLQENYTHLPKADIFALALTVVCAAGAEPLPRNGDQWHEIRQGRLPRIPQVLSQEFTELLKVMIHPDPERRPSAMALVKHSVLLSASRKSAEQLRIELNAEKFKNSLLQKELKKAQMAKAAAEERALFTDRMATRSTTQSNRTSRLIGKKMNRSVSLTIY
Chain of SRPK3 (Q9UPE1 whole entry): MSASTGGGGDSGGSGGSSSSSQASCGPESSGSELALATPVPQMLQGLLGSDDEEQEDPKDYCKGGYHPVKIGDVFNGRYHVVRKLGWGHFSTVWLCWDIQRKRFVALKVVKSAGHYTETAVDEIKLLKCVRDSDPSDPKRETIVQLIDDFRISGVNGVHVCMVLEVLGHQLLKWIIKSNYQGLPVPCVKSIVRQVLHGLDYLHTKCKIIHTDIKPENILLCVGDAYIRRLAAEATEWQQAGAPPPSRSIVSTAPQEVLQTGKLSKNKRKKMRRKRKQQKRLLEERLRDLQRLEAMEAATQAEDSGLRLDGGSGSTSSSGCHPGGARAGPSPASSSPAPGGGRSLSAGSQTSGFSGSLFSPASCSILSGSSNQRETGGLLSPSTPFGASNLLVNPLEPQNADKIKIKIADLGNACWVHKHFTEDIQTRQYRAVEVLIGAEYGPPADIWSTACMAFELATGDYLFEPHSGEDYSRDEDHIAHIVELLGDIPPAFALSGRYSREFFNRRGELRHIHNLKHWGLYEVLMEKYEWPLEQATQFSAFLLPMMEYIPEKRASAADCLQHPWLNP
Chain of EGFR (P00533 whole entry): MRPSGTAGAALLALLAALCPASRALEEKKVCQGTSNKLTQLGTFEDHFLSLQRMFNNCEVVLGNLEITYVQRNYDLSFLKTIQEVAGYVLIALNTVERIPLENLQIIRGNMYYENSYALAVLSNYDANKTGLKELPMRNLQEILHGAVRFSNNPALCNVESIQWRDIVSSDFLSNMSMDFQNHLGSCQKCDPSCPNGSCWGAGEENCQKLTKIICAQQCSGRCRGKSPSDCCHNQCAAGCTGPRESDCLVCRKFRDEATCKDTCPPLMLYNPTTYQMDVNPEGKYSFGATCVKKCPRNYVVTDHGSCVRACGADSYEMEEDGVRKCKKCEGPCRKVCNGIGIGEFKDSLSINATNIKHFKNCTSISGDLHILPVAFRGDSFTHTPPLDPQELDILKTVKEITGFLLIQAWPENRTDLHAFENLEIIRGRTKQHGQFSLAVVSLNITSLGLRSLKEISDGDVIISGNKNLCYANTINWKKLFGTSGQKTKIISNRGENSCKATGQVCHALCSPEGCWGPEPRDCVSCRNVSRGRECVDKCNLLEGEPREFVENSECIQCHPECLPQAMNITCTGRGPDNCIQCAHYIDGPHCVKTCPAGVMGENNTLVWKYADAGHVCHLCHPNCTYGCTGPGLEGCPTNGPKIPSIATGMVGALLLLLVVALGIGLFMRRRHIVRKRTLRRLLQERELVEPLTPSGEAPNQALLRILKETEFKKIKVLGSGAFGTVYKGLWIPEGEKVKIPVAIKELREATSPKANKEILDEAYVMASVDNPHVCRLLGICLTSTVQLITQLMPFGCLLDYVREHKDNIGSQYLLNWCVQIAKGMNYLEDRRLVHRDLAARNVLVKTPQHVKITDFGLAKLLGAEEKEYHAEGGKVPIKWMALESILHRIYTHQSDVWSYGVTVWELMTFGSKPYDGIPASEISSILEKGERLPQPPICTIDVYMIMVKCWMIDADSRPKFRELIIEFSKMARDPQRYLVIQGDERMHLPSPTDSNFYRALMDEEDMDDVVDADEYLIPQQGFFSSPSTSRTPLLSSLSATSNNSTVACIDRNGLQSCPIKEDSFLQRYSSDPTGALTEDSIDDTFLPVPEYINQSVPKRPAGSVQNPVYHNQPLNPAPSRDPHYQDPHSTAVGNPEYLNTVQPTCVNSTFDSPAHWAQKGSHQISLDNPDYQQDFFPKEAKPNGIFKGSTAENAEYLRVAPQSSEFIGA
Chain of PIK3CA(E545K) (P42336 whole entry E545K): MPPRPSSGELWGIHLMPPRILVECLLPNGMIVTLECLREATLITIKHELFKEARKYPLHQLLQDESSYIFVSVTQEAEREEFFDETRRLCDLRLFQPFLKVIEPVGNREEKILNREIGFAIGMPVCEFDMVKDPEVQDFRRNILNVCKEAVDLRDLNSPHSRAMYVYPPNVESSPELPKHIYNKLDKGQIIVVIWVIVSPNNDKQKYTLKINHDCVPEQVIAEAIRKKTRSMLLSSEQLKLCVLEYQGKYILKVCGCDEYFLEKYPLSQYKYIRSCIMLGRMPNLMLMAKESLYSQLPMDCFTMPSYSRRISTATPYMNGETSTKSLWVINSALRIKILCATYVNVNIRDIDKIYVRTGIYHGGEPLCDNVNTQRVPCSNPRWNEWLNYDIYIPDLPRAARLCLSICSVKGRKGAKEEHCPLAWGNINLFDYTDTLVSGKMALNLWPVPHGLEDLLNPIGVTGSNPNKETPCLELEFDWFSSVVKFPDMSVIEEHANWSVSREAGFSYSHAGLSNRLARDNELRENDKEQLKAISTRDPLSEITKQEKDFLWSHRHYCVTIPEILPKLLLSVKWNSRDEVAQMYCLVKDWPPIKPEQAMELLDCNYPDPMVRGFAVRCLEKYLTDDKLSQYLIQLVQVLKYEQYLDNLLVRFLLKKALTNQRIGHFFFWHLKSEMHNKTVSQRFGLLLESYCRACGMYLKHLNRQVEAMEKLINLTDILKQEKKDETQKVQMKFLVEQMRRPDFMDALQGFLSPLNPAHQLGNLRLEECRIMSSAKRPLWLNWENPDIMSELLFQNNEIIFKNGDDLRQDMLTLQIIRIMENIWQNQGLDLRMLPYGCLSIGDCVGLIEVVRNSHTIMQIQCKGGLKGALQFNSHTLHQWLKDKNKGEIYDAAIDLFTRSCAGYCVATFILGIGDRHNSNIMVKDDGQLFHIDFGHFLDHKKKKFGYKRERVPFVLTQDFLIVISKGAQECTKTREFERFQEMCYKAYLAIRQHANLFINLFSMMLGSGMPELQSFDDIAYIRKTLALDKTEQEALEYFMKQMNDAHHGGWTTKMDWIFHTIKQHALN

For `CC#CC(=O)N1CC[C@@H](n2c(=O)n(-c3ccc(Oc4ccccc4)cc3)c3c(N)ncnc32)C1` [Tirabrutinib], the remaining binding at 0.3 µM (CDKL2; [1]) was 84%, the remaining binding at 0.3 µM (EGFR; [1]) was 100% and the remaining binding at 0.3 µM (PHKG2; [1]) was 93%. For the same compound, the remaining binding at 0.3 µM (PIK3CA(E545K); [1]) was 78% and the remaining binding at 0.3 µM (WEE1; [1]) was 93%.
`C=CC(=O)N1CCC[C@@H](n2nc(-c3ccc(Oc4ccccc4)cc3)c3c(N)ncnc32)C1` [Ibrutinib] showed a remaining binding at 0.3 µM (AXL; [2]) of 85%, a remaining binding at 0.3 µM (CDKL2; [2]) of 99% and a remaining binding at 0.3 µM (CSF1R; [2]) of 66%. It also gave a remaining binding at 0.3 µM (EGFR; [2]) of 0.2%, a remaining binding at 0.3 µM (PHKG2; [2]) of 81% and a remaining binding at 0.3 µM (PIK3CA(E545K); [2]) of 75%. The remaining binding at 0.3 µM (SRPK3; [2]) was 96% and the remaining binding at 0.3 µM (WEE1; [2]) was 89%.
`C=CC(=O)N1CCC([C@@H]2CCNc3c(C(N)=O)c(-c4ccc(Oc5ccccc5)cc4)nn32)CC1` [Zanubrutinib] gave a remaining binding at 0.3 µM (AXL; [3]) of 91%, a remaining binding at 0.3 µM (CDKL2; [3]) of 100% and a remaining binding at 0.3 µM (CSF1R; [3]) of 88%. The remaining binding at 0.3 µM (PHKG2; [3]) was 92%, the remaining binding at 0.3 µM (SRPK3; [3]) was 100% and the remaining binding at 0.3 µM (WEE1; [3]) was 100%.
With `CC#CC(=O)N1CCC[C@H]1c1nc(-c2ccc(C(=O)Nc3ccccn3)cc2)c2c(N)nccn12` [Acalabrutinib] the remaining binding at 0.3 µM (AXL; [4]) was 88%, the remaining binding at 0.3 µM (CSF1R; [4]) was 88% and the remaining binding at 0.3 µM (EGFR; [4]) was 82%. For the same compound, the remaining binding at 0.3 µM (PIK3CA(E545K); [4]) was 99%, the remaining binding at 0.3 µM (SRPK3; [4]) was 86% and the remaining binding at 0.3 µM (WEE1; [4]) was 80%.
